Laboratory results published in ChEMBL document CHEMBL1201862, “PubChem BioAssay data set” (2004).
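Grown in 96-well plates, cells were treated for 48 hours with each compound at five concentrations. Insufficient inhibition: endpoint recorded as highest concentration tested. GI50 = concentration required for 50% inhibition of growth.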 Calls of active or inactive are those of the source. Cut-off read from the data, not from the text of the source: active = GI50 up to about 1.1 µM and inactive = higher.

Legend:
Experiment in all cases: NCI tumour cell line growth inhibition, 48 h
HOP-62 = system: HOP-62
MDA-N = system: MDA-N
SNB-19 = system: SNB-19
UACC-62 = system: UACC-62
SK-MEL-28 = system: SK-MEL-28
OVCAR-5 = system: OVCAR-5
SR = system: SR
HL-60 = system: HL-60
SF-268 = system: SF-268
786-0 = system: 786-0
RPMI-8226 = system: RPMI-8226
COLO 205 = system: COLO 205
SW-620 = system: SW-620
NCI-H226 = system: NCI-H226
HCT-116 = system: HCT-116
SK-OV-3 = system: SK-OV-3
SK-MEL-2 = system: SK-MEL-2
NCI-H23 = system: NCI-H23
A549 = system: A549
K562 = system: K562

O=C1c2ccccc2-c2c1c1ccccc1c(=O)n2CCO
GI50 (HOP-62): 5.4 µM (inactive) | GI50 (MDA-N): 51.8 µM (inactive) | GI50 (SNB-19): 6.1 µM (inactive) | GI50 (UACC-62): 11.5 µM (inactive) | GI50 (SK-MEL-28): > 76.6 µM (inactive) | GI50 (OVCAR-5): > 100 µM (inactive) | GI50 (SR): 2.24 µM (inactive) | GI50 (HL-60): 2.4 µM (inactive) | GI50 (SF-268): 19.1 µM (inactive) | GI50 (786-0): 6.03 µM (inactive) | GI50 (RPMI-8226): > 26.9 µM (inactive) | GI50 (COLO 205): 4.9 µM (inactive) | GI50 (SW-620): 7.29 µM (inactive) | GI50 (NCI-H226): 6.84 µM (inactive) | GI50 (HCT-116): 4.83 µM (inactive) | GI50 (SK-OV-3): 30.8 µM (inactive) | GI50 (SK-MEL-2): 39.6 µM (inactive) | GI50 (NCI-H23): 14.1 µM (inactive) | GI50 (A549): 5.27 µM (inactive) | GI50 (K562): > 36 µM (inactive)

COc1ccc2c(c1)CCc1c(-c3noc4c3CCc3cc(OC)ccc3-4)noc1-2
GI50 (HOP-62): > 100 µM (inactive) | GI50 (MDA-N): > 100 µM (inactive) | GI50 (SNB-19): > 100 µM (inactive) | GI50 (UACC-62): > 100 µM (inactive) | GI50 (SK-MEL-28): > 100 µM (inactive) | GI50 (OVCAR-5): > 100 µM (inactive) | GI50 (SR): > 100 µM (inactive) | GI50 (HL-60): > 100 µM (inactive) | GI50 (SF-268): > 100 µM (inactive) | GI50 (786-0): > 100 µM (inactive) | GI50 (RPMI-8226): > 100 µM (inactive) | GI50 (COLO 205): > 100 µM (inactive) | GI50 (SW-620): > 100 µM (inactive) | GI50 (NCI-H226): > 100 µM (inactive) | GI50 (HCT-116): > 100 µM (inactive) | GI50 (SK-OV-3): > 100 µM (inactive) | GI50 (SK-MEL-2): > 100 µM (inactive) | GI50 (NCI-H23): > 100 µM (inactive) | GI50 (A549): > 100 µM (inactive) | GI50 (K562): > 100 µM (inactive)

CN(C)CCC(C(=O)C(C)(C)C)c1ccccn1 (stereo not given)
GI50 (HOP-62): > 100 µM (inactive) | GI50 (MDA-N): > 100 µM (inactive) | GI50 (SNB-19): > 100 µM (inactive) | GI50 (UACC-62): > 100 µM (inactive) | GI50 (SK-MEL-28): > 100 µM (inactive) | GI50 (OVCAR-5): > 100 µM (inactive) | GI50 (SR): > 100 µM (inactive) | GI50 (HL-60): > 100 µM (inactive) | GI50 (SF-268): > 100 µM (inactive) | GI50 (786-0): > 100 µM (inactive) | GI50 (RPMI-8226): > 100 µM (inactive) | GI50 (COLO 205): > 100 µM (inactive) | GI50 (SW-620): > 100 µM (inactive) | GI50 (NCI-H226): > 100 µM (inactive) | GI50 (HCT-116): > 100 µM (inactive) | GI50 (SK-OV-3): > 100 µM (inactive) | GI50 (SK-MEL-2): > 100 µM (inactive) | GI50 (NCI-H23): > 100 µM (inactive) | GI50 (A549): > 100 µM (inactive) | GI50 (K562): > 100 µM (inactive)

CN(C)C(=O)c1nnsc1NN=O
GI50 (HOP-62): > 100 µM (inactive) | GI50 (MDA-N): > 100 µM (inactive) | GI50 (SNB-19): > 100 µM (inactive) | GI50 (UACC-62): > 100 µM (inactive) | GI50 (SK-MEL-28): > 100 µM (inactive) | GI50 (OVCAR-5): > 100 µM (inactive) | GI50 (SR): > 100 µM (inactive) | GI50 (HL-60): > 100 µM (inactive) | GI50 (SF-268): > 100 µM (inactive) | GI50 (786-0): > 100 µM (inactive) | GI50 (RPMI-8226): > 100 µM (inactive) | GI50 (COLO 205): > 100 µM (inactive) | GI50 (SW-620): > 100 µM (inactive) | GI50 (NCI-H226): > 100 µM (inactive) | GI50 (HCT-116): > 100 µM (inactive) | GI50 (SK-OV-3): > 100 µM (inactive) | GI50 (SK-MEL-2): > 100 µM (inactive) | GI50 (NCI-H23): > 100 µM (inactive) | GI50 (A549): > 100 µM (inactive) | GI50 (K562): > 100 µM (inactive)

Cc1cc(=O)oc2c(C3=NN(C=O)C(c4ccccc4)C3)c(O)ccc12 (stereo not given)
GI50 (HOP-62): 37.1 µM (inactive) | GI50 (MDA-N): > 54.8 µM (inactive) | GI50 (SNB-19): 47.4 µM (inactive) | GI50 (UACC-62): 82.2 µM (inactive) | GI50 (SK-MEL-28): > 100 µM (inactive) | GI50 (OVCAR-5): > 87.7 µM (inactive) | GI50 (SR): 60.1 µM (inactive) | GI50 (HL-60): > 100 µM (inactive) | GI50 (SF-268): 31.6 µM (inactive) | GI50 (786-0): 26.1 µM (inactive) | GI50 (RPMI-8226): > 79.3 µM (inactive) | GI50 (COLO 205): > 71.8 µM (inactive) | GI50 (SW-620): > 100 µM (inactive) | GI50 (NCI-H226): > 76 µM (inactive) | GI50 (HCT-116): 81.1 µM (inactive) | GI50 (SK-OV-3): 20.2 µM (inactive) | GI50 (SK-MEL-2): 52.5 µM (inactive) | GI50 (NCI-H23): 85.9 µM (inactive) | GI50 (A549): 20.8 µM (inactive) | GI50 (K562): > 91 µM (inactive)

COc1cc(N2C(=O)C(=O)C3(CCCCC3)C2=O)cc(OC)c1OC
GI50 (HOP-62): 57.5 µM (inactive) | GI50 (MDA-N): > 100 µM (inactive) | GI50 (SNB-19): > 100 µM (inactive) | GI50 (UACC-62): > 100 µM (inactive) | GI50 (SK-MEL-28): > 100 µM (inactive) | GI50 (OVCAR-5): > 100 µM (inactive) | GI50 (SR): > 100 µM (inactive) | GI50 (HL-60): > 100 µM (inactive) | GI50 (SF-268): > 100 µM (inactive) | GI50 (786-0): > 100 µM (inactive) | GI50 (RPMI-8226): > 100 µM (inactive) | GI50 (COLO 205): > 100 µM (inactive) | GI50 (SW-620): > 100 µM (inactive) | GI50 (NCI-H226): > 100 µM (inactive) | GI50 (HCT-116): > 100 µM (inactive) | GI50 (SK-OV-3): > 100 µM (inactive) | GI50 (SK-MEL-2): > 100 µM (inactive) | GI50 (NCI-H23): > 100 µM (inactive) | GI50 (A549): > 100 µM (inactive) | GI50 (K562): > 100 µM (inactive)

CCN(CCO)CCNc1ccc(C)c2sc3ccccc3c(=O)c12
GI50 (HOP-62): 3.97 µM (inactive) | GI50 (MDA-N): 1.74 µM (inactive) | GI50 (SNB-19): 11 µM (inactive) | GI50 (UACC-62): 1.76 µM (inactive) | GI50 (SK-MEL-28): 2.02 µM (inactive) | GI50 (OVCAR-5): 5.15 µM (inactive) | GI50 (SR): 6.01 µM (inactive) | GI50 (HL-60): 3.37 µM (inactive) | GI50 (SF-268): 6.85 µM (inactive) | GI50 (786-0): 2.96 µM (inactive) | GI50 (RPMI-8226): 4.28 µM (inactive) | GI50 (COLO 205): 1.63 µM (inactive) | GI50 (SW-620): 2.28 µM (inactive) | GI50 (NCI-H226): 4 µM (inactive) | GI50 (HCT-116): 2.88 µM (inactive) | GI50 (SK-OV-3): 5.66 µM (inactive) | GI50 (SK-MEL-2): 3.59 µM (inactive) | GI50 (NCI-H23): 8.05 µM (inactive) | GI50 (A549): 4.3 µM (inactive) | GI50 (K562): 4.31 µM (inactive)

COc1ccccc1NC1Oc2cc3c(cc2C(c2cc(OC)c(OC)c(OC)c2)C1C)OCO3 (stereo not given)
GI50 (HOP-62): 5.26 µM (inactive) | GI50 (MDA-N): 0.358 µM (active) | GI50 (SNB-19): 6.56 µM (inactive) | GI50 (UACC-62): 1.53 µM (inactive) | GI50 (SK-MEL-28): > 25.1 µM (inactive) | GI50 (OVCAR-5): 6.64 µM (inactive) | GI50 (SR): 1.03 µM (active) | GI50 (HL-60): 0.612 µM (active) | GI50 (SF-268): 3.62 µM (inactive) | GI50 (786-0): 3.5 µM (inactive) | GI50 (RPMI-8226): 1.93 µM (inactive) | GI50 (COLO 205): 1.95 µM (inactive) | GI50 (SW-620): 1.19 µM (inactive) | GI50 (NCI-H226): 4.35 µM (inactive) | GI50 (HCT-116): 2.42 µM (inactive) | GI50 (SK-OV-3): 10.5 µM (inactive) | GI50 (SK-MEL-2): 5.85 µM (inactive) | GI50 (NCI-H23): 4.46 µM (inactive) | GI50 (A549): 4.53 µM (inactive) | GI50 (K562): 0.875 µM (active)

O=C(O)CCCc1ccc2c(c1)C(C(=O)O)CC2 (stereo not given)
GI50 (HOP-62): > 100 µM (inactive) | GI50 (MDA-N): > 100 µM (inactive) | GI50 (SNB-19): > 100 µM (inactive) | GI50 (UACC-62): > 100 µM (inactive) | GI50 (SK-MEL-28): > 100 µM (inactive) | GI50 (OVCAR-5): > 100 µM (inactive) | GI50 (SR): > 100 µM (inactive) | GI50 (HL-60): > 100 µM (inactive) | GI50 (SF-268): > 100 µM (inactive) | GI50 (786-0): > 100 µM (inactive) | GI50 (RPMI-8226): > 100 µM (inactive) | GI50 (COLO 205): > 100 µM (inactive) | GI50 (SW-620): > 100 µM (inactive) | GI50 (NCI-H226): > 100 µM (inactive) | GI50 (HCT-116): > 100 µM (inactive) | GI50 (SK-OV-3): > 100 µM (inactive) | GI50 (SK-MEL-2): > 100 µM (inactive) | GI50 (NCI-H23): > 100 µM (inactive) | GI50 (A549): > 100 µM (inactive) | GI50 (K562): > 100 µM (inactive)

[N-]=[N+]=Nc1ccc(CNc2cc(=O)[nH]c(=O)[nH]2)cc1
GI50 (HOP-62): > 100 µM (inactive) | GI50 (MDA-N): > 100 µM (inactive) | GI50 (SNB-19): > 100 µM (inactive) | GI50 (UACC-62): > 100 µM (inactive) | GI50 (SK-MEL-28): > 50.7 µM (inactive) | GI50 (OVCAR-5): > 100 µM (inactive) | GI50 (SR): > 100 µM (inactive) | GI50 (HL-60): > 100 µM (inactive) | GI50 (SF-268): > 100 µM (inactive) | GI50 (786-0): > 100 µM (inactive) | GI50 (RPMI-8226): > 100 µM (inactive) | GI50 (COLO 205): > 100 µM (inactive) | GI50 (SW-620): > 64.1 µM (inactive) | GI50 (NCI-H226): > 100 µM (inactive) | GI50 (HCT-116): > 100 µM (inactive) | GI50 (SK-OV-3): > 100 µM (inactive) | GI50 (SK-MEL-2): > 100 µM (inactive) | GI50 (NCI-H23): > 100 µM (inactive) | GI50 (A549): > 100 µM (inactive) | GI50 (K562): > 100 µM (inactive)
